# From US12139488B2, “Pyrido[3,2-d]pyrimidine compounds uses thereof for treating a proliferative disease” (Universite de Montreal, priority 2021, dated 2024)
# Assays:
# [1] = biological target: CRAF (Homo sapiens, UniProt P04049); experiment: CRAF kinase activity assay (ADP-Glo); type: biochemical; conditions: read-out: Kinase IC50 (nM) CRAF
# In short: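 Compound was tested at nine concentrations (0.01–100 nM, 0.05% DMSO final) against BRAF or CRAF phosphorylating MEK1 with ATP, for 2 h at 30 °C. ADP formed was read by ADP-Glo luminescence, and % inhibition was fitted with a four-parameter log(agonist) model to obtain IC50.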
# [2] = tested on: pERK and pMEK in RAS-mutant HCT-116 cells; experiment: Immunoblot analysis of pERK and pMEK in HCT-116 cells; type: cell-based, human; conditions: 1 h treatment, FIG. 2
# Procedure: For immunoblotting analysis, 500,000 HCT-116 cells were plated in 1 mL of complete RPMI-1640 growth medium in 24-well flat-bottomed transparent dishes (Costar). Cells were maintained overnight at 37° C. under 5% CO2 before treatment with compounds' dilution series for one hour.
# Cells were then washed once in PBS and lized in 250 μL of Igepal Lysis Buffer (50 mM Tris-HCl pH 7.5, 150 mM NaCl, 1% Igepal-CA630, 1 mM EDTA, 10% Glycerol) supplemented with Leupeptin, Aprotinin, PMSF, phosphatase inhibitor cocktail (Sigma) and Na3VO4 at 4° C. for 15 minutes with gentle rocking. Cell extracts were then cleared by centrifugation at 20,000 g at 4° C. for 10 minutes. Cleared lysates were then transferred on ice in fresh tubes and then boiled in sample loading buffer (100 mM Tris-HCl pH 6.8, 4% SDS, 0.2% bromophenol blue, 20% glycerol, 200 mM p-mercaptoethanol) for 5 minutes prior to fractionation by SDS-PAGE and transfer to nitrocellulose membranes (PALL). […]
# CRAF, sequence (P04049 whole entry, looked up): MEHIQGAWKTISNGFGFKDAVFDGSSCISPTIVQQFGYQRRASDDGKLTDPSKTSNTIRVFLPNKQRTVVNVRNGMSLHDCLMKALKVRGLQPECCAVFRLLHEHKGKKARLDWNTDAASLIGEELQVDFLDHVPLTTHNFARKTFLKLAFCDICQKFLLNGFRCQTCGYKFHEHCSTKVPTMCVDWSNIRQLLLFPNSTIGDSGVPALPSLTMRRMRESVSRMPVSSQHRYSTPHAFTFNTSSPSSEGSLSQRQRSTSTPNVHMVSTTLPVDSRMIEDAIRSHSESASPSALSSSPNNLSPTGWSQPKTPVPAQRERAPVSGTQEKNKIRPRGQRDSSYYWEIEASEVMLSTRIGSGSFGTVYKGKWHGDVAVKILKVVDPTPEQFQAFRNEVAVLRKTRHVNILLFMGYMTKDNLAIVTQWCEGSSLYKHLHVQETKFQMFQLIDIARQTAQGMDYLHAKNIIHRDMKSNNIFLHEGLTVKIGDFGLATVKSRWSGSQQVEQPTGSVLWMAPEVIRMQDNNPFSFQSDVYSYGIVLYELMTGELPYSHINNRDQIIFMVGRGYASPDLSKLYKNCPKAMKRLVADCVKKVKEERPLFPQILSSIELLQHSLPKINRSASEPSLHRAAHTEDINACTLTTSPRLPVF
smiles,measurement,setting,value
Nc1cccc2c1ncn2-c1ccc2ncnc(Nc3c(F)ccc(NS(=O)(=O)c4cccc(Cl)c4Cl)c3F)c2n1 [Example 99],IC50,[1],< 10 nM
same,paradoxical induction of pERK or pMEK signaling (immunoblot),[2],does not induce paradoxical induction of pERK or pMEK signaling
